This note sets out measurements from US12037336B2, “Compounds with activity as inhibitors of the epithelial sodium channel (ENaC)” (Enterprise Therapeutics Limited, priority 2018, dated 2024).

Counter-ions that a name gives are not always drawn.

This experiment addresses T1, ENaC (Homo sapiens, UniProt P37088+P51168+P51170).
T1 construct: host or cells: primary human bronchial epithelial cells (HBECs), differentiated at an air-liquid interface
T1 sequence (P37088 1-669): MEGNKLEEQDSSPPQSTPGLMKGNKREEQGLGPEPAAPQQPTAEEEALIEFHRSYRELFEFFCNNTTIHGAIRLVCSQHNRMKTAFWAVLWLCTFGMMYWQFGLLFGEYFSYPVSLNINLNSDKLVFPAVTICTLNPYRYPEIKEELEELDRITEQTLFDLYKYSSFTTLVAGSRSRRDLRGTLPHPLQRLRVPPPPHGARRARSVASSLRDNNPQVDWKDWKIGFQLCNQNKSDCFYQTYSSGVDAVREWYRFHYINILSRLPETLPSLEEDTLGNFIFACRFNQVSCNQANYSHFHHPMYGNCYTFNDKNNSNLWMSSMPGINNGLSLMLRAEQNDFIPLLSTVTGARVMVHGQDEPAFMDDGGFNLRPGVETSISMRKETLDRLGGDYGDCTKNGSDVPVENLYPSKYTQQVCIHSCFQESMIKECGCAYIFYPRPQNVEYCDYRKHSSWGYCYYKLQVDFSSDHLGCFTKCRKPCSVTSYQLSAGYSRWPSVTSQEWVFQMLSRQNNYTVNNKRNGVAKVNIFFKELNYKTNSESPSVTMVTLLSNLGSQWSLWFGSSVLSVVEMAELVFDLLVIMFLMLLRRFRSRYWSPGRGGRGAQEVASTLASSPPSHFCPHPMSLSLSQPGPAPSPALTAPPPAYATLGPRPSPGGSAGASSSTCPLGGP
T1 sequence (P51168 1-640): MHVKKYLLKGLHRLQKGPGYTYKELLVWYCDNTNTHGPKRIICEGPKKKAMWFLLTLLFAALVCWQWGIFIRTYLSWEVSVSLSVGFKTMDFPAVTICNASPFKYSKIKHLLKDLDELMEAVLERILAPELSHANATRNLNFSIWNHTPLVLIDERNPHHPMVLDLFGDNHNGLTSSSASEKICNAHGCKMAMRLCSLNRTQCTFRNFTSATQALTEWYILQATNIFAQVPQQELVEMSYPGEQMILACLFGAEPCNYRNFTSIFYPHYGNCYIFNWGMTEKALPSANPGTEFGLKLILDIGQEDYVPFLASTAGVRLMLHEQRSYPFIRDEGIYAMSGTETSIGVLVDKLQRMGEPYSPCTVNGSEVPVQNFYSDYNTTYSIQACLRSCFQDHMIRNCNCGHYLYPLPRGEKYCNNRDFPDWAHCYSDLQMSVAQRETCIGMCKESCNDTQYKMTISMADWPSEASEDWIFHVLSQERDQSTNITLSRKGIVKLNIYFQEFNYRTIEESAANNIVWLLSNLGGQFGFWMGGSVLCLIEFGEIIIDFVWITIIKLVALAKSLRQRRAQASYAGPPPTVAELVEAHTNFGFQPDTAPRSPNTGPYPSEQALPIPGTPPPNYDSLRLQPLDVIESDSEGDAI
T1 sequence (P51170 1-649): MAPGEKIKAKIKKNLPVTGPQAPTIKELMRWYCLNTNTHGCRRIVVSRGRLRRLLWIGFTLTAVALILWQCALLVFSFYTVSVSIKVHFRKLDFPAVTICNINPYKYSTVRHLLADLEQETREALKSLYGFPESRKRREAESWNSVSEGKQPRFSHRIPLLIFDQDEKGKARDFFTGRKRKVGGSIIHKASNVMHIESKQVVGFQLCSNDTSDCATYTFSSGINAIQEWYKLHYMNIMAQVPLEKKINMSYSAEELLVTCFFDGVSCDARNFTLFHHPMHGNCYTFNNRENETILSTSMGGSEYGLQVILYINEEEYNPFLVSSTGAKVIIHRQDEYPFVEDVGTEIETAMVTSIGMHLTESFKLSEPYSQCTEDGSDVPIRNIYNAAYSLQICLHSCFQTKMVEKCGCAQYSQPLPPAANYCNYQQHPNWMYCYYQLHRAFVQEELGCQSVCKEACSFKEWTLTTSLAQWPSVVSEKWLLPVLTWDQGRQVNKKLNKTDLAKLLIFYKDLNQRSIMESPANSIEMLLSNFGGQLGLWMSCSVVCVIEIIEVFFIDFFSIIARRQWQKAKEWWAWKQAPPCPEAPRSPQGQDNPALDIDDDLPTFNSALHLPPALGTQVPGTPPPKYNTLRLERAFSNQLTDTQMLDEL
Nature of the experiment: Short circuit current assay to determine ENaC blocker potency in human bronchial epithelial cells. The conditions noted are these: 50% inhibition of the total amiloride-sensitive short-circuit current (ISC) in human bronchial epithelial cells (HBECs) at air-liquid interface; apical addition; read-out: Averages · ENaC IC50 (nM) Avg. Type of experiment: cell-based. Here is the method: Example 6 Short circuit current assay to determine ENaC blocker potency in human bronchial epithelial cells
Cell culture Human bronchial epithelial cells (HBECs) (Lonza, UK) were cultured using a modification of the method described by Coote et al, (2008). Cells were seeded into plastic T-75 flasks and grown in Bronchial Epithelial Cell Growth Medium (BEGM) (Lonza, UK) supplemented with bovine pituitary extract (52 ng/mL), hydrocortisone (0.5 μg/mL), human recombinant Epidermal Growth Factor (0.5 ng/mL), epinephrine (0.5 ng/mL), transferrin (10 ng/mL), insulin (5 ng/mL), retinoic acid (0.1 ng/mL), triiodothyronine (6.5 ng/mL), gentamycin (50 μg/mL) and amphotericin-B (50 ng/mL). Medium was changed every 48 hours until cells were 90% confluent. Cells were then passaged and seeded (8.25×10^5 cells/insert) onto polycarbonate Snapwell™ inserts (Costar, UK) in differentiation media containing 50% DMEM in BGEM with the same supplements as above but without triiodothyronine and a final retinoic acid concentration of 50 nM (all-trans retinoic acid; Sigma-Aldrich, UK). Cells were maintained submerged for the first 7 days in culture after which time they were exposed to an apical air interface for the remainder of the culture period. From the first day of establishment of an ALI, HBEC were fed with a DMEM:HAMS F-12 (1:1) media containing 2% Ultroser G (Pall BioSepra, France) with gentamycin (50 μg/mL) and amphotericin B (50 ng/mL). Cells were used for short-circuit current assay between days 14-21 after the establishment of the ALI. At all stages of culture, cells were maintained at 37° C. in 5% CO2 in an air incubator.
Short-Circuit Current (ISC) Measurements
Snapwell inserts were mounted in Costar Vertical Diffusion Chambers (Costar, UK) and were bathed with continuously gassed Ringer solution (5% CO2 in O2; pH 7.4) maintained at 37° C. containing (in mM): 120 NaCl, 25 NaHCO3, 3.3 KH2PO4, 0.8 K2HPO4, 1.2 CaCl2, 1.2 MgCl2 and 10 glucose. The solution osmolarity was always between 280-300 mOsm/kg H2O for all physiological salt solutions used. Cells were voltage clamped to 0 mV (model EVC4000, WPI). Transepithelial resistance (RT) was measured by applying a 2 mV pulse at 30 s intervals and calculating RT by Ohm's law. Data were recorded using a PowerLab workstation (ADInstruments, UK).
ENaC blocker compounds were added to the apical chamber from a 1000-fold stock solution (prepared in DMSO) to achieve a cumulative concentration response in terms of the inhibition of the basal ISC. At the completion of the concentration response, a supra-maximal concentration of amiloride (10 μM) was added. The concentration of test compound that induced a 50% inhibition of the total amiloride-sensitive ISC (IC50) was calculated using GraphPad Prism v6.05. […]

Consider `CCn1c(CNC(=O)c2nc3c(C)n[nH]c3nc2N)[n+](CC)c2ccc(OC)cc21` [Example 1, 2-[({6-amino-3-methyl-1H-pyrazolo[3,4-b]pyrazin-5-yl}formamido)methyl]-1,3-diethyl-6-methoxy-1H-1,3-benzodiazol-3-ium trifluoroacetate], for which the IC50 came to 2 nM. With `CCn1c(CNC(=O)c2nc3c(C)n[nH]c3nc2N)[n+](CC)c2ccc(C(=O)O)cc21` [Example 2, 2-[({6-amino-3-methyl-1H-pyrazolo[3,4-b]pyrazin-5-yl}formamido)methyl]-6-carboxy-1,3-diethyl-1H-1,3-benzodiazol-3-ium formate], the IC50 came to 91.5 nM. Consider `CCn1c(CNC(=O)c2nc3cn[nH]c3nc2N)[n+](CC)c2ccc(C(=O)O)cc21` [Example 3], for which the 50% inhibitory concentration (IC50) is 106 nM. As to `CCn1c(CNC(=O)c2nc3cn[nH]c3nc2N)[n+](CC)c2ccc(C(=O)N3CCC(N(C[C@H](O)[C@@H](O)[C@H](O)[C@H](O)CO)C[C@H](O)[C@@H](O)[C@H](O)[C@H](O)CO)CC3)cc21` [Example 4, 2-[({6-amino-1H-pyrazolo[3,4-b]pyrazin-5-yl}formamido)methyl]-6-(4-{bis[(2S,3R,4R,5R)-2,3,4,5,6-pentahydroxyhexyl]amino}piperidine-1-carbonyl)-1,3-diethyl-1H-1,3-benzodiazol-3-ium trifluoroacetic acid trifluoroacetate], the IC50 is 47 nM.
